Experimental data reported in patent US5066818A, “Photochromic naphthopyran compounds” (PPG Industries, Inc., priority 1990, dated 1991).

Key:
[1] = Photochromic response on optical bench of naphthopyrans imbibed into polymer test samples; type: physicochemical; settings: homopolymer of diethylene glycol bis(allyl carbonate); for Δ OD at SATURATION: 150 watt Xenon lamp, about one sun, twenty minutes exposure; for Bleach Rate T1/2: values in sec.
Experimental: Naphthopyran compounds prepared in the above-described Examples were imbibed by thermal transfer into test samples of a homopolymer of diethylene glycol bis(allyl carbonate) by the following procedure. Each naphthopyran was dissolved into toluene solvent to form a 4% solution of the compound. A piece of No. 4 Whatman filter paper was saturated with the naphthopyran solution and allowed to air dry. The dried filter paper was placed on one side of the polymer test sample, which measured 1/8 inch (0.3 centimeter)×2 inch (5.1 centimeters)×2 inch (5.1 centimeters). A piece of untreated filter paper was placed on the other side of the polymer test sample and the resulting sandwich placed between two plates of flat aluminum metal plates. The entire assembly was then placed in a 155° C. oven for a time sufficient to thermally transfer the naphthopyran into the polymer test sample.
The imbibed test samples were removed from the oven, washed with acetone, and tested for photochromic response rates on an optical bench. The samples were illuminated by a 150 watt Xenon lamp fitted with a copper sulfate bath and neutral density filter at an intensity of about one sun. The optical density at saturation was determined at twenty minutes exposure.

[2] = Photochromic behaviour (coloring, bleaching) stated in words; type: physicochemical; settings: for coloring on exposure to ultraviolet light: near ultraviolet; for bleaching / rate of fade in words: room temperature and above, or ambient temperature

Compound | Δ OD at SATURATION [1] | coloring on exposure to ultraviolet light [2] | bleaching / rate of fade in words [2] | Bleach Rate T1/2 [1]
FC(F)(F)c1cccc(C2(c3cccc(C(F)(F)F)c3)C=Cc3ccc4ccccc4c3O2)c1 [compound 5, 3,3-di(3-trifluoromethyl)phenyl-2H-naphtho [1,2-b]pyran] | 1.07 |  |  | 
C1=CC(c2ccccc2)(c2ccccc2)Oc2c1ccc1ccccc21 [a., 2,2diphenyl-2H naphthol[1,2b]pyran] | 1.37 | colors on exposure to near ultraviolet light at room temperature | does not bleach in a reasonable period of time | 
COc1ccc(C2(c3c(F)cccc3F)C=Cc3c(ccc4ccccc34)O2)cc1 (centres unmarked) [Example 6, 3(2,6-difluorophenyl)-3(4-methoxyphenyl)-3H-naphtho[2,1-b]pyran] | 2.23 |  |  | 
FC(F)(F)c1ccc(C2(c3ccccc3)C=Cc3ccc4ccccc4c3O2)cc1 (centres unmarked) [Comparative Example 4, 3-phenyl-3(4-trifluoromethylphenyl)-2H-naphtho[1,2-b]pyran] | 1.63 |  |  | 
COc1ccc(C2(c3ccccc3)C=Cc3c(ccc4ccccc34)O2)c(OC)c1 (centres unmarked) [Example 5, 3-phenyl-3-(2,4-dimethoxyphenyl)-3H-naphtho[2,1-b]pyran] | 1.42 |  |  | 8.5 min
COc1ccc(C2(c3ccccc3)C=Cc3c(ccc4ccccc34)O2)cc1 (centres unmarked) [Comparative Example 2, 3-phenyl-3(4-methoxyphenyl)-3H-naphtho[2,1-b]pyran] | 0.25 |  |  | 0.583 min
COc1ccc(C2(c3ccc(OC)cc3C)C=Cc3c(ccc4ccccc34)O2)cc1 (centres unmarked) [Example 3, 3(2-methyl-4-methoxyphenyl)-3-(4methoxyphenyl)-3H-naphtho-[2,1-b]pyran] | 1.35 |  |  | 8.5 min
C1=CC(c2ccccc2)(c2ccccc2)Oc2ccc3ccccc3c21 [compound 1, 3,3-diphenyl-3H-naphtho[2,1-b]pyran] | 0.36 | change color on exposure to the near ultraviolet | bleaches too rapidly for use in an ophthalmic lens | 0.75 min
COc1ccc(C2(c3ccccc3C)C=Cc3c(ccc4ccccc34)O2)cc1 (centres unmarked) [Example 4, 3(2-methylphenyl)-3-(4-methoxyphenyl)-3H-naphtho[2,1-b]pyran] | 2.40 |  |  | 10 min
COc1ccc(C2(c3ccc(C)cc3)C=Cc3c(ccc4ccccc34)O2)cc1 (centres unmarked) [compound 3, 3(4-methylphenyl)-3-(4-methoxyphenyl)-3H-naphtho[2,1-b]pyran] | 0.21 |  |  | 0.667 min
